The record followed here is US20250352537A1, “PHARMACEUTICAL COMPOSITIONS OF TRICYCLIC AKR1C3 DEPENDENT KARS INHIBITOR AND METHODS FOR MAKING SAME” (NOVARTIS AG, priority 2022, published 2025).

Where only a bound is given, the exact number is not on record here.

Type in all cases: physicochemical
Data set [1] is described as follows: Hot melt extrusion (HME) thermal stability. The settings on record: extrusion of compound-polymer mixture at temperatures in excess of 160° C. The source says: A holt melt extrusion (HME) approach was also attempted.
Data set [2] can be described thus: Supersaturation / desupersaturation of DMSO solution in FaSSIF-V1. The settings on record: FaSSIF-V1, 37° C. The procedure: FIG. 1 is a an illustration of Compound (I) desupersaturation profiles in FaSSIF-V1 when added as DMSO solution at drug loads from 100 to 2000 ppmw
The supersaturation potential of Compound (1) was studied by mixing drug dissolved in 1 mL DMSO into 99 mL FaSSIF-V1 stirred at 37° C. (FIG. 1). At higher drug loads of 500, 1000 or 2000 ppmw (or […]) Compound (1) precipitated practically instantaneously and attained a constant steady state concentration of approx. 20 μg/mL or below within 5 minutes.. At the 90 min final sampling the solids were confirmed to be crystalline Compound (1) by XRPD. At lower drug loads, supersaturation was maintained longer, e.g. approx. 110 μg/mL drug dissolved at 5 min at 200 ppmw drug load and approx. 70 μg/mL drug dissolved till 20 min at 100 ppmw drug load. Situation after desupersaturation was similar as described for higher drug loads.

The nature of data set [3]: Initial stability evaluation of lyophilized solid dispersions (mDSC, UPLC). The settings on record: initial purity of Compound (I) 99.3%. The procedure: The following example illustrates the initial feasibility assessment of an amorphous solid dispersion formulation. An amorphous solid dispersion (ASD) was initially evaluated as a potential formulation for Compound (1). Solid dispersion screening was performed by lyophilization of solid Compound (1) with a polymer. Miscibility trials of Compound (1) were performed with Kollidon® VA64, HPMC-AS-LF, Eudragit® L100-55, and HPMC 603, by conducting a DSC measurement of the lyophilized material to determine if the material was amorphous or crystalline. […] Kollidon® VA64 at both 50% and 40% drug loading recrystallized after 5 weeks. HPMC-AS-LF and Eudragit® L100-55 remained amorphous under stressed conditions. However, HPMC-AS-LF and Eudragit® L100-55 both have significant impurities after 5 weeks until stressed conditions, according to UPLC analysis.

`O=C1CC2(CCN(C(=O)NCc3ccc(F)cc3)CC2)Nc2ccc(F)cc21` [Compound (I), 6′-fluoro-N-(4-fluorobenzyl)-4′-oxo-3′,4′-dihydro-1′H-spiro[piperidine-4,2′-quinoline]-1-carboxamide]: the “stability on hot melt extrusion” value in data set [1] was “thermal degradation”. Moreover, the drug dissolved result is “approx. 110 μg/mL” in data set [2] (at 5 min at 200 ppmw drug load) and “approx. 70 μg/mL” in data set [2] (till 20 min at 100 ppmw drug load). This molecule also registered a steady state concentration in data set [2] (drug loads of 500, 1000 or 2000 ppmw, within 5 minutes) of at most 20 µg/mL. The supersaturation potential entry in data set [2] (overall) is recorded as “rather poorly supersaturating”. The “UPLC (%)” value in data set [3] (3 weeks 50° C./75% RH) is listed as 99.09%; in data set [3] (5 weeks 50° C./75% RH), 99.05%.
